Assay results reported in patent publication US20110086035A1, “IMMUNOTHERAPEUTIC METHODS AND MOLECULES” (priority 2008, published 2011).
Like-named read-outs stand apart in the source and are kept apart here.

B1: recombinant Asp f1-H136L protein: FLAG-tagged recombinant A. fumigatus Asp f1 ribotoxin with point mutation His136Leu, without leader sequence (protein, UniProt P67875 28-176, looked up, variant H136L)
Ribonuclease mitogillin: ATWTCINQQLNPKTNKWEDKRLLYSQAKAESNSHHAPLSDGKTGSSYPHWFTNGYDGNGKLIKGRTPIKFGKADCDRPPKHSQNGMGKDDHYLLEFPTFPDGHDYKFDSKKPKEDPGPARVIYTYPNKVFCGIVALQRGNQGDLRLCSH
modifications: FLAG tag

Assays:
[1] = test system: FHT-specific CD4+ T cell clones; assay: Restimulation of FHT-specific CD4+ T cell clones with antigen-loaded dendritic cells, IFN-γ ELISA; format: cell-based, human
Experimental: For generation of antigen-specific T cell clones PBMC were stimulated repeatedly with 1 μg/ml FHT peptide once weekly for 4 weeks. Subsequently T cell clones were generated by limiting dilution in 96-well plates and expanded using the rapid expansion protocol as described by Beck et al^14. A CMVpp65-specific CD4^+ T cell clone used in control experiments was generated accordingly by limiting dilution of T cells stimulated with pp65 peptide antigen (kindly provided by Jan Diekmann).
(§1) Dendritic cells (DC) were generated from monocytes by addition of 500 U/ml GM-CSF (PromoCell, Heidelberg, Germany) and 700 U/ml IL-4 (R&D systems, Wiesbaden-Nordenstadt, Germany) to the culture medium. Immature dendritic cells were incubated for 24 hours with either live A. fumigatus or C. albicans conidia or fungus killed by treatment with ethanol 0, 4, 8 or 12 hours after germination and subsequently co-incubated, with Aspergillus peptide-specific T cell clones for further 24 hours. Dendritic cells used for presentation of protein or peptide antigen were induced to mature by addition of 25 ng/ml TNF-α, 5 ng/ml IL-1β, 10 ng/ml IL-6 (all R&D systems, Wiesbaden-Nordenstadt, Germany) and 1 μg/ml PGE2 (Pharmacia, Ratingen, Germany) prior to antigen-pulsing and co-incubation with antigen-specific T cells. […]

[2] = test system: PBMC from HLA-DRB1*04-positive donors; assay: Criss-cross restimulation of T cell lines generated with FHT peptide or recombinant Asp f16 protein, IFN-γ; format: cell-based, human; settings: lines generated for one week with peptide or protein, exposed to both for 24 hours; FIG. 2C
Experimental: (§2) Antigen-specific T cell lines were generated by incubation of 1×10^7 whole PBMC per well in 6-well cell culture plates with 5 μg/ml recombinant protein or 1 μg/ml peptide antigen for 7 days. Lymphocyte cultures were supplemented with 5 U/ml IL-2 (Proleukin, Chiron, Ratingen, Germany) every other day and culture medium replenished as needed.
(§3) Autologous monocytes were isolated from whole PBMC by allowing cells to adhere to tissue culture dishes for 2 hours and subsequent extensive washing to remove non-adherent cells. For presentation of protein antigen, monocytes were cultured overnight in the presence of 5 μg/ml recombinant protein and harvested by mechanical abrasion the next day. For presentation of peptide antigen, monocytes were incubated overnight without antigen and mature cells harvested and pulsed with 1 μg/ml peptide antigen for 1 hour. Transduced autologous B cells were used as antigen-presenting cells (APC) after repeated culture on gamma-irradiated human CD40L-transfected feeder cells. […]
(§4) In order to define a common MHC class II epitope of the Asp f16 protein, lymphocyte donors were screened for the expression of the most abundant MHC class II allele HLA-DRB1*04 and Asp f16-specific T cell lines generated as described. […] All T cell cultures were then exposed to both peptide and recombinant protein for 24 hours and IFN-γ production quantified.

HLA-DRB1*04 = assay: Binding to HLA-DRB1*04; set-up: species or system human
Excerpt: Whether or not a peptide binds to HLA-DRB1*04 may be determined using any method known in the art. A suitable method is shown in Example 1, with particular reference to FIG. 2B. One method is to introduce the peptide into PBMCs taken from an HLA-DRB1*04 human and determine whether an activating or proliferative response is obtained which is indicative of binding. Binding to HLA-DRB1*04 may also be assessed using the methods described in FIGS. 7 and 8.
(§5) Using limiting dilution, individual T cell clones were generated. Following expansion, the clones were either left un-stimulated, stimulated with FHT peptide or stimulated with HLA restricted FHT loaded LCL. IFNg production was then measured in a standard ELISA.

[3] = test system: Asp f16-specific T cell lines of HLA-DRB1*04-positive donors; assay: Restimulation of Asp f16-specific T cell lines with peptide-pulsed autologous monocytes, IFN-γ ELISA; format: cell-based, human; settings: T cell lines of 3 HLA-DRB1*04-positive donors; monocytes pulsed with 1 μg/ml peptide; 24 h; FIG. 2B
Experimental: as §2, §3, §4

A. fumigatus conidia = assay: Confrontation assay: killing of A. fumigatus conidia by monocytes pre-incubated with T cell supernatant; format: cell-based, Aspergillus fumigatus; settings: monocytes pre-incubated with supernatant of T cell clones activated with FHT peptide-pulsed APC; 3 hours; FIG. 5
Experimental: as §1, with “cells. In one experiment the antigen-presenting dendritic cells fed with live Aspergillus conidia were incubated with either 25 μg/ml control antibody or MHC class II blocking antibody (No 555556, BD Biosciences, Heidelberg, Germany) for 1 hour prior to addition of the T cells. Antibody also remained present during the 24 hours co-incubation of T cells with antigen-presenting DC.” for “cells.”
Killing of A. fumigatus conidia by monocytes was quantified using confrontation assays. […] Each experimental setting was determined in quadruple. […] Colonies were quantified after incubation at 37° C. over night. […]

T cells specific for FHT = assay: DRB1*0401/FHT multimer staining of FHT-expanded cell lines; format: cell-based, human; settings: PBMC of 3 donors (two DRB1*0401, one DRB1*0408) expanded 14 or 21 days; FHT bound to multimer of DRB1*0401; FIG. 7
Excerpt: FIG. 7. Cell lines expanded using the FHT peptide contain T cells that bind specifically to the FHT peptide in the context of DRB1*0401. PBMC from 3 different donors were expanded with the FHT peptide for 14 or 21 days (IVS—In vitro stimulation). Two of the donors were DRB1*0401 positive and one was DRB1*0408 positive.
PBMC from 3 different donors were expanded with the FHT peptide for 14 or 21 days (IVS—In vitro stimulation). Two of the donors were DRB1*0401 positive and one was DRB1*0408 positive.

T cell clones = assay: IFNg ELISA of T cell clones stimulated with FHT peptide or FHT loaded HLA restricted LCL; format: cell-based, human; settings: in all but one of the clones; FIG. 8
Experimental: FIG. 8. […] Using limiting dilution, individual T cell clones were generated. Following expansion, the clones were either left un-stimulated, stimulated with FHT peptide or stimulated with HLA restricted FHT loaded LCL. IFNg production was then measured in a standard ELISA.
as §5

phoenix GALV = format: cell-based, human; settings: point mutation His136Leu versus Asp f1
Excerpt: The gene encoding the A. fumigatus Asp f16 protein (NCBI accession number AY169706) was cloned into the eukaryotic expression vector pcDNA3.1-TOPO (Invitrogen, Karlsruhe, Germany) with N- and C-terminal FLAG®-Tag (Sigma-Aldrich, Muenchen, Germany). The gene was amplified from cDNA kindly provided by Utz Reichard (University of Goettingen, Germany). The gene encoding Asp f1 protein (NCBI accession number M83781) was cloned accordingly, omitting the leader sequence (cDNA kindly provided by Prof. Dr. Stefan Stevanović, University of Tuebingen, Germany).
pcDNA3.1-aspf16-FLAG and pcDNA3.1-aspf1-H136L-FLAG expression vector was introduced into the transgenic human cell line phoenix GALV^20 via calcium phosphate transfection. Parental as well as transfected producer cells were cultivated in DMEM medium (Invitrogen, Karlsruhe, Germany) supplemented with 10% heat-inactivated fetal calf serum (FCS, Biochrom, Berlin, Germany) and 100 U/ml Penicillin-Streptomycin (Invitrogen, Karlsruhe, Germany). 24 hours after transfection transgene expression from the CMV promoter of the expression vector was enhanced by addition of 1 mM sodium butyrate (Sigma-Aldrich, Muenchen, Germany) to the culture medium^21.
Recombinant Asp f1 and Asp f16 proteins were produced in a eukaryotic expression system and purified by standard methods via introduced FLAG-Tags. […]

PBMC from healthy donors = assay: Restimulation of T cell lines generated with recombinant protein, IFN-γ ELISA; format: cell-based, human; settings: PBMC of 4 healthy donors; significant = at least 50 pg/ml and/or more than 5-fold increase over unstimulated; FIG. 1A/1B
Experimental: Blood was obtained from HLA-DRB1*-typed healthy donors after informed consent. Peripheral blood mononuclear cells (PBMC) were isolated via centrifugation in Biocoll Separating Solution (Biochrom, Berlin, Germany) and either used directly after preparation or cryopreserved for later use. Cells were cultured in RPMI 1640 with L-Glutamine (Invitrogen, Karlsruhe, Germany), supplemented with 10% heat-inactivated, pooled human serum and 100 U/ml Penicillin-Streptomycin (Invitrogen, Karlsruhe, Germany).
as §2
Autologous monocytes were isolated from whole PBMC by allowing cells to adhere to tissue culture dishes for 2 hours and subsequent extensive washing to remove non-adherent cells. […]
PBMC from 4 different healthy donors, were stimulated for 7 days with purified recombinant Asp f1-H136L or Asp f16 protein. The generated T cell lines were then re-exposed for 24 hours to both proteins and the amount of secreted IFN-γ quantified in the supernatant by IFN-γ ELISA. […]

Molecule	IFN-γ production of FHT-specific CD4+ T cell clones in response to DC ([1]; autologous DC pulsed with synthetic peptide, 24 h, FIG. 3A)	specific cytokine (IFN-γ) production after restimulation with peptide and recombinant protein [2]	binding to HLA-DRB1*04 (HLA-DRB1*04)	binding to HLA-DRB1*04 (HLA-DRB1*04; listed as FHT)	IFN-γ production in response to peptide [3]	fungal survival after phagocytosis by monocytes (A. fumigatus conidia)	detection of FHT specific T cells by multimer staining (T cells specific for FHT)	IFNg production with FHT loaded HLA restricted LCL compared to peptide alone (T cell clones)	cross-reactivity of Asp f16-specific CD4+ TH1 T cell clones to pulsed APC ([1]; APC pulsed with purified protein)	cytotoxicity in the producing cell line (phoenix GALV)	IFN-γ after one week of stimulation and 24 h re-exposure to recombinant protein (PBMC from healthy donors)
FHTYTIDWTKDAVTW [FHT peptide]	high amounts of IFN-γ	specific cytokine production could be detected	has been shown to bind to HLA-DRB1*04	specifically binds HLADRB1*04	abundant production of IFN-γ	significantly reduce fungal survival	can be detected by DRB1*0401/FHT multimer staining	greatly increased specific cytokine production			
B1									not cross-reactive	nearly abolished cytotoxicity	only one of 4 donors responded robustly
